According to patent US10532995B2, “Substituted pyrazole compounds as serine protease inhibitors” (VERSEON CORPORATION, priority 2015, dated 2020):

Biological target: T1, Human thrombin (Homo sapiens, UniProt P00734)
T1 construct: purchased Haematologic Technologies Inc
Assay: Thrombin protease activity inhibition, chromogenic substrate S-2238
Assay type: biochemical
Conditions: 3 nM thrombin, 125 μM S-2238, 10 min pre-incubation, RT
Experimental: The thrombin activity reported herein (e.g., Table A) was obtained as follows. […] Thrombin was assayed in buffer containing 0.05 M Tris (pH 7.4), 0.015 M NaCl and 0.01% PEG-8000. The final concentration of enzyme used was 3 nM thrombin. […] All assays were performed in 96-well microtiter plates at room temperature (RT). […] Inhibitor IC50 values were determined by adding test compound as ten point, three-fold serial dilutions in buffer solution, as known in the art. The plate was read at 10 minutes after substrate addition. The IC50 was calculated by plotting the percent (%) inhibition against compound concentration and fitting the data to a constrained four parameter sigmoidal curve, as known in the art.

IC50 [nM]	SMILES
> 100000	FC(F)(F)c1cccc(CN2CCC(c3cc(NCc4ccc(Cl)s4)[nH]n3)CC2)n1 [Entry 176, N-[(5-chlorothiophen-2-yl)methyl]-3-(1-[6-(trifluoromethyl)pyridin-2-yl]methylpiperidin-4-yl)-1H-pyrazol-5-amine]
1000 to 10000	CC1(C(=O)n2nc(C3(C)CCCNC3)cc2NCc2ccc(Cl)s2)CCOCC1 (stereo not drawn) [Entry 162, N-[(5-chlorothiophen-2-yl)methyl]-1-(4-methyloxane-4-carbonyl)-3-(3-methylpiperidin-3-yl)-1H-pyrazol-5-amine]
< 100	CS(=O)(=O)N1C2CCC1CC(c1cc(NCc3ccc(Cl)s3)n(C(=O)c3cscn3)n1)C2 (stereo not drawn) [Entry 225, N-[(5-chlorothiophen-2-yl)methyl]-3-8-methanesulfonyl-8-azabicyclo[3.2.1]octan-3-yl-1-(1,3-thiazole-4-carbonyl)-1H-pyrazol-5-amine]
< 100	C=CCOC(=O)N1CCC(c2nn(C(=O)C(C)(C)C)c(NCc3ccc(Cl)s3)c2C)CC1 [Entry 264, prop-2-en-1-yl 4-(5-[(5-chlorothiophen-2-yl)methyl]amino-1-(2,2-dimethylpropanoyl)-4-methyl-1H-pyrazol-3-yl)piperidine-1-carboxylate]
100 to 1000	COc1ccccc1C(=O)n1nc(C2CCCNC2)cc1NCc1ccc(Cl)s1 (stereo not drawn) [Entry 157, N-[(5-chlorothiophen-2-yl)methyl]-1-(2-methoxybenzoyl)-3-(piperidin-3-yl)-1H-pyrazol-5-amine]
1000 to 10000	Clc1ccc(CNc2cc(C3CCN(CCN4CCOCC4)CC3)n[nH]2)s1 [Entry 223, N-[(5-chlorothiophen-2-yl)methyl]-3-1-[2-(morpholin-4-yl)ethyl]piperidin-4-yl-1H-pyrazol-5-amine]
> 100000	O=C(O)CN1CCC(c2cc(NCc3ccc(Cl)s3)[nH]n2)CC1 [Entry 112, 2-[4-(5-[(5-chlorothiophen-2-yl)methyl]amino-1H-pyrazol-3-yl)piperidin-1-yl]acetic acid]
> 100000	O=C(CN1CCOCC1)N1CCC(c2cc(NCc3ccc(Cl)s3)[nH]n2)CC1 [Entry 103, 1-[4-(5-[(5-chlorothiophen-2-yl)methyl]amino-1H-pyrazol-3-yl)piperidin-1-yl]-2-(morpholin-4-yl)ethan-1-one]
100 to 1000	COc1ccccc1C(=O)n1nc(C2(C)CCCNC2=O)cc1NCc1ccc(Cl)s1 (stereo not drawn) [Entry 117, 3-(5-[(5-chlorothiophen-2-yl)methyl]amino-1-(2-methoxybenzoyl)-1H-pyrazol-3-yl)-3-methylpiperidin-2-one]
> 100000	Clc1ccc(CNc2cc(C3CCN(Cc4cccnc4)CC3)n[nH]2)s1 [Entry 211, N-[(5-chlorothiophen-2-yl)methyl]-3-[1-(pyridin-3-ylmethyl)piperidin-4-yl]-1H-pyrazol-5-amine]
< 100	CC1(C(=O)n2nc(C3CCN(C(=O)N4CCOCC4)CC3)cc2NCc2ccc(Cl)s2)CCC(O)CC1 (stereo not drawn) [Entry 139, 4-(5-[(5-chlorothiophen-2-yl)methyl]amino-3-[1-(morpholine-4-carbonyl)piperidin-4-yl]-1H-pyrazole-1-carbonyl)-4-methylcyclohexan-1-ol]
< 100	CN(C)C(=O)N1CCC(c2cc(NCc3ccc(Cl)s3)n(C(=O)C(C)(C)CO)n2)CC1 [Entry 134, 4-(5-[(5-chlorothiophen-2-yl)methyl]amino-1-(3-hydroxy-2,2-dimethylpropanoyl)-1H-pyrazol-3-yl)-N,N-dimethylpiperidine-1-carboxamide]
< 100	O=C(N1CCOCC1)N1CCC(c2cc(NCc3ccc(Cl)s3)n(C(=O)c3cscn3)n2)C1 (stereo not drawn) [Entry 205, N-[(5-chlorothiophen-2-yl)methyl]-3-[1-(morpholine-4-carbonyl)pyrrolidin-3-yl]-1-(1,3-thiazole-4-carbonyl)-1H-pyrazol-5-amine]
10000 to 100000	Cc1c(C2CCN(C(=O)N3CCOCC3)CC2)n[nH]c1NCc1ccc(Cl)s1 [Entry 237, N-[(5-chlorothiophen-2-yl)methyl]-4-methyl-3-[1-(morpholine-4-carbonyl)piperidin-4-yl]-1H-pyrazol-5-amine]
10000 to 100000	O=C(N1CCC(c2n[nH]c(NCc3ccc(Cl)s3)c2F)CC1)C1(O)CC1 [Entry 104, 1-[4-(5-[(5-chlorothiophen-2-yl)methyl]amino-4-fluoro-1H-pyrazol-3-yl)piperidine-1-carbonyl]cyclopropan-1-ol]

The remaining lines, values behind:

SMILES	IC50 [nM]
CC1(C(=O)n2nc(C3CCOCC3)c(F)c2NCc2ccc(Cl)s2)CCOCC1 [Entry 229, N-[(5-chlorothiophen-2-yl)methyl]-4-fluoro-1-(4-methyloxane-4-carbonyl)-3-(oxan-4-yl)-1H-pyrazol-5-amine]	< 100
O=C(c1ccsc1)n1nc(C2CNC2)cc1NCc1ccc(Cl)s1 [Entry 129, 3-(azetidin-3-yl)-N-[(5-chlorothiophen-2-yl)methyl]-1-(thiophene-3-carbonyl)-1H-pyrazol-5-amine; trifluoroacetic acid]	1000 to 10000
O=C(c1cccc2c1OCCO2)n1nc(C2CNC2)cc1NCc1ccc(Cl)s1 [Entry 126, 3-(azetidin-3-yl)-N-[(5-chlorothiophen-2-yl)methyl]-1-(2,3-dihydro-1,4-benzodioxine-5-carbonyl)-1H-pyrazol-5-amine; trifluoroacetic acid]	1000 to 10000
COc1ccccc1C(=O)n1nc(C2(C)CCCN(C(=O)OC(C)(C)C)C2)cc1NCc1ccc(Cl)s1 (stereo not drawn) [Entry 280, tert-butyl 3-(5-[(5-chlorothiophen-2-yl)methyl]amino-1-(2-methoxybenzoyl)-1H-pyrazol-3-yl)-3-methylpiperidine-1-carboxylate]	< 100
Cc1c(C2CCNCC2)nn(C(=O)C(C)(C)C)c1NCc1ccc(Cl)s1 [Entry 89, 1-(5-[(5-chlorothiophen-2-yl)methyl]amino-4-methyl-3-(piperidin-4-yl)-1H-pyrazol-1-yl)-2,2-dimethylpropan-1-one; formic acid]	1000 to 10000
CC(=O)N1CCC(c2cc(NCc3ccc(Cl)s3)n(C(=O)c3ccsc3)n2)CC1 [Entry 102, 1-[4-(5-[(5-chlorothiophen-2-yl)methyl]amino-1-(thiophene-3-carbonyl)-1H-pyrazol-3-yl)piperidin-1-yl]ethan-1-one]	100 to 1000
CS(=O)(=O)N1CCCC1c1cc(NCc2ccc(Cl)s2)[nH]n1 (stereo not drawn) [Entry 174, N-[(5-chlorothiophen-2-yl)methyl]-3-(1-methanesulfonylpyrrolidin-2-yl)-1H-pyrazol-5-amine]	> 100000
CN(C)C(=O)N1CCC(c2cc(NCc3ccc(Cl)s3)[nH]n2)CC1 [Entry 137, 4-(5-[(5-chlorothiophen-2-yl)methyl]amino-1H-pyrazol-3-yl)-N,N-dimethylpiperidine-1-carboxamide]	> 100000
COc1ccccc1C(=O)n1nc(C2(C)CCN(C(=O)OC(C)(C)C)CC2)cc1NCc1ccc(Cl)s1 [Entry 294, tert-butyl 4-(5-[(5-chlorothiophen-2-yl)methyl]amino-1-(2-methoxybenzoyl)-1H-pyrazol-3-yl)-4-methylpiperidine-1-carboxylate]	< 100
O=C(c1ccoc1)n1nc(C2CCCN2)cc1NCc1ccc(Cl)s1 (stereo not drawn) [Entry 167, N-[(5-chlorothiophen-2-yl)methyl]-1-(furan-3-carbonyl)-3-(pyrrolidin-2-yl)-1H-pyrazol-5-amine]	< 100
CC(=O)N1CCC(c2cc(NCc3ccc(Cl)s3)n(C(=O)C(C)(C)C)n2)CC1 [Entry 94, 1-[3-(1-acetylpiperidin-4-yl)-5-[(5-chlorothiophen-2-yl)methyl]amino-1H-pyrazol-1-yl]-2,2-dimethylpropan-1-one]	< 100
CC(C)(C)C(=O)n1nc(C2(C)CCNC2=O)cc1NCc1ccc(Cl)s1 (stereo not drawn) [Entry 116, 3-(5-[(5-chlorothiophen-2-yl)methyl]amino-1-(2,2-dimethylpropanoyl)-1H-pyrazol-3-yl)-3-methylpyrrolidin-2-one]	< 100
O=C(c1ccsc1)n1nc(C2CCCO2)cc1NCc1ccc(Cl)s1 (stereo not drawn) [Entry 183, N-[(5-chlorothiophen-2-yl)methyl]-3-(oxolan-2-yl)-1-(thiophene-3-carbonyl)-1H-pyrazol-5-amine]	< 100
C=CCOC(=O)N1CCN(CC(F)(F)F)CC1c1cc(NCc2ccc(Cl)s2)[nH]n1 (stereo not drawn) [Entry 248, prop-2-en-1-yl 2-(5-[(5-chlorothiophen-2-yl)methyl]amino-1H-pyrazol-3-yl)-4-(2,2,2-trifluoroethyl)piperazine-1-carboxylate]	> 100000
COc1ccccc1C(=O)n1nc(C2(C)CCCNC2)cc1NCc1ccc(Cl)s1 (stereo not drawn) [Entry 153, N-[(5-chlorothiophen-2-yl)methyl]-1-(2-methoxybenzoyl)-3-(3-methylpiperidin-3-yl)-1H-pyrazol-5-amine]	1000 to 10000
COCC(C)(C)C(=O)n1nc(C2(C)CCCN(C(=O)OC(C)(C)C)C2)cc1NCc1ccc(Cl)s1 (stereo not drawn) [Entry 284, tert-butyl 3-(5-[(5-chlorothiophen-2-yl)methyl]amino-1-(3-methoxy-2,2-dimethylpropanoyl)-1H-pyrazol-3-yl)-3-methylpiperidine-1-carboxylate]	100 to 1000
COc1ccccc1C(=O)n1nc(C2CCCN2C(=O)OC(C)(C)C)cc1NCc1ccc(Cl)s1 (stereo not drawn) [Entry 273, tert-butyl 2-(5-[(5-chlorothiophen-2-yl)methyl]amino-1-(2-methoxybenzoyl)-1H-pyrazol-3-yl)pyrrolidine-1-carboxylate]	1000 to 10000
CC(C)(C)C(=O)n1nc(C2CCN(Cc3ccccc3)CC2)cc1NCc1ccc(Cl)s1 [Entry 95, 1-[3-(1-benzylpiperidin-4-yl)-5-[(5-chlorothiophen-2-yl)methyl]amino-1H-pyrazol-1-yl]-2,2-dimethylpropan-1-one]	< 100
